Results reported in PubChem BioAssay AID248 (DTP/NCI, 2004).
Where “and” joins values, the source holds several entries; their conditions need not be identical. Identical values can stand only once. Inconclusive results and toxic doses are left out. Cut-off read from the data, not from the text of the source: active = T/C of 150% or more; inactive = T/C below 125%.

Test system: L1210 leukemia ip in BDF1 mice, survival T/C
Test: NCI In Vivo Anticancer Drug Screen. Data for tumor model L1210 Leukemia (intraperitoneal) in B6D2F1 (BDF1) mice
Settings: endpoint: mean survival time, higher = longer survival
In short: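 Tumor cells were implanted, animals were treated, and survival was followed. The result divides the treated measurement by the vehicle-control measurement.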

[1] = dose: 100.0 mg/kg/injection, schedule: Q01DX001 (ip), vehicle: Klucel (hydroxypropylcellulose) (HPC)
[2] = dose: 100.0 mg/kg/injection, schedule: Q01DX009 (ip), vehicle: Klucel (hydroxypropylcellulose) (HPC)
[3] = dose: 100.0 mg/kg/injection, schedule: Q04DX003 (ip), vehicle: Klucel (hydroxypropylcellulose) (HPC)
[4] = dose: 200.0 mg/kg/injection, schedule: Q01DX001 (ip), vehicle: Klucel (hydroxypropylcellulose) (HPC)
[5] = dose: 200.0 mg/kg/injection, schedule: Q01DX009 (ip), vehicle: Klucel (hydroxypropylcellulose) (HPC)
[6] = dose: 200.0 mg/kg/injection, schedule: Q04DX003 (ip), vehicle: Klucel (hydroxypropylcellulose) (HPC)
[7] = dose: 400.0 mg/kg/injection, schedule: Q01DX001 (ip), vehicle: Klucel (hydroxypropylcellulose) (HPC)
[8] = dose: 400.0 mg/kg/injection, schedule: Q01DX009 (ip), vehicle: Klucel (hydroxypropylcellulose) (HPC)
[9] = dose: 400.0 mg/kg/injection, schedule: Q04DX003 (ip), vehicle: Klucel (hydroxypropylcellulose) (HPC)
[10] = dose: 12.5 mg/kg/injection, schedule: Q01DX009 (ip), vehicle: saline with Tween-80
[11] = dose: 12.5 mg/kg/injection, schedule: Q04DX003 (ip), vehicle: saline with Tween-80
[12] = dose: 25.0 mg/kg/injection, schedule: Q01DX009 (ip), vehicle: saline with Tween-80
[13] = dose: 25.0 mg/kg/injection, schedule: Q04DX003 (ip), vehicle: saline with Tween-80
[14] = dose: 100.0 mg/kg/injection, schedule: Q04DX002 (ip), vehicle: Klucel (hydroxypropylcellulose) (HPC)
[15] = dose: 200.0 mg/kg/injection, schedule: Q04DX002 (ip), vehicle: Klucel (hydroxypropylcellulose) (HPC)
[16] = dose: 50.0 mg/kg/injection, schedule: Q04DX003 (ip), vehicle: Klucel (hydroxypropylcellulose) (HPC)

Measured: T/C

CNC(=S)NN=C(c1ccccc1)c1ccccc1
inactive: [1] 95 % of control | [2] 91 % of control | [3] 93 % of control | [4] 90 % of control | [5] 89 % of control | [6] 87 % of control | [7] 87 % of control | [8] 93 % of control | [9] 96 % of control

[N-]=[N+]=NC1=CC(=O)C(c2ccccc2)=CC1=O
inactive: dose: 100.0 mg/kg/injection, schedule: Q04DX002 (ip), vehicle: saline with Tween-80 102 % of control | dose: 200.0 mg/kg/injection, schedule: Q04DX002 (ip), vehicle: saline with Tween-80 97 % of control

N#CC(CCO)(CCO)c1ccccc1
inactive: [2] 101 % of control | [5] 97 % of control | [8] 105 % of control

NC(=S)N=Nc1c(O)[nH]c(=O)[nH]c1=O
inactive: [10] 98 % of control | [11] 97 % of control | [12] 104 % of control | [13] 92 % of control | dose: 50.0 mg/kg/injection, schedule: Q01DX009 (ip), vehicle: saline with Tween-80 104 % of control | dose: 50.0 mg/kg/injection, schedule: Q04DX003 (ip), vehicle: saline with Tween-80 96 % of control

CCOC(=O)C(C)(C)C(=O)C(C)C
inactive: [14] 100 % of control | [15] 95 % of control | dose: 400.0 mg/kg/injection, schedule: Q04DX002 (ip), vehicle: Klucel (hydroxypropylcellulose) (HPC) 103 % of control

O=S1(=O)CC2C1C1(Cl)C(Cl)=C(Cl)C2(Cl)C1(Cl)Cl (stereo unspecified)
inactive: dose: 50.0 mg/kg/injection, schedule: Q01DX001 (ip), vehicle: carboxymethylcellulose (CMC) 100 % of control | dose: 100.0 mg/kg/injection, schedule: Q01DX001 (ip), vehicle: carboxymethylcellulose (CMC) 91 % of control | dose: 200.0 mg/kg/injection, schedule: Q01DX001 (ip), vehicle: carboxymethylcellulose (CMC) 96 % of control | dose: 400.0 mg/kg/injection, schedule: Q01DX001 (ip), vehicle: carboxymethylcellulose (CMC) 96 % of control

COC(=O)N1C(c2ccc(OC)cc2)CS1(=O)=O (stereo unspecified)
inactive: dose: 75.0 mg/kg/injection, schedule: Q04DX003 (ip), vehicle: Klucel (hydroxypropylcellulose) (HPC) 101 % of control | [1] 97 % of control | dose: 150.0 mg/kg/injection, schedule: Q04DX003 (ip), vehicle: Klucel (hydroxypropylcellulose) (HPC) 98 % of control | [4] 102 % of control | dose: 300.0 mg/kg/injection, schedule: Q04DX003 (ip), vehicle: Klucel (hydroxypropylcellulose) (HPC) 116 % of control | [7] 97 % of control

Cc1nn(CCO)c(C)c1N=[N+]([O-])c1c(C)nn(CCO)c1C
inactive: dose: 25.0 mg/kg/injection, schedule: Q01DX009 (ip), vehicle: Klucel (hydroxypropylcellulose) (HPC) 93 % of control and 98 % of control | dose: 30.0 mg/kg/injection, schedule: Q01DX009 (ip), vehicle: saline 95 % of control | dose: 50.0 mg/kg/injection, schedule: Q01DX009 (ip), vehicle: Klucel (hydroxypropylcellulose) (HPC) 95 % of control and 107 % of control | dose: 50.0 mg/kg/injection, schedule: Q04DX002 (ip), vehicle: Klucel (hydroxypropylcellulose) (HPC) 101 % of control | [14] 96 % of control | [15] 96 % of control

O=C1C=CC(=O)N1CCCCN1C(=O)C=CC1=O
inactive: dose: 11.1 mg/kg/injection, schedule: Q01DX Z (ip), vehicle: methylcellulose (MC) 96 % of control | dose: 16.6 mg/kg/injection, schedule: Q01DX Z (ip), vehicle: methylcellulose (MC) 106 % of control | dose: 25.0 mg/kg/injection, schedule: Q01DX Z (ip), vehicle: methylcellulose (MC) 93 % of control

NP(O)(O)=S
inactive: dose: 9.38 mg/kg/injection, schedule: Q01DX001 (ip), vehicle: saline 104 % of control | dose: 18.75 mg/kg/injection, schedule: Q01DX001 (ip), vehicle: saline 98 % of control

CC(C)=CCc1c2c(c3occ(-c4ccc(O)c(O)c4)c(=O)c3c1O)C=CC(C)(C)O2
inactive: [16] 93 % of control | [3] 100 % of control | [6] 104 % of control

CC(C)n1cnc2nc[nH]c2c1=S
inactive: dose: 25.0 mg/kg/injection, schedule: Q01DX001 (ip), vehicle: Klucel (hydroxypropylcellulose) (HPC) 91 % of control | dose: 25.0 mg/kg/injection, schedule: Q04DX003 (ip), vehicle: Klucel (hydroxypropylcellulose) (HPC) 95 % of control | dose: 50.0 mg/kg/injection, schedule: Q01DX001 (ip), vehicle: Klucel (hydroxypropylcellulose) (HPC) 95 % of control | [16] 102 % of control | [1] 98 % of control | [3] 92 % of control

CC1=CC(=O)OC(C)(C)O1
inactive: dose: 100.0 mg/kg/injection, schedule: Q01DX009 (ip), vehicle: saline 103 % of control | dose: 100.0 mg/kg/injection, schedule: Q04DX003 (ip), vehicle: saline 100 % of control | dose: 200.0 mg/kg/injection, schedule: Q01DX009 (ip), vehicle: saline 101 % of control | dose: 200.0 mg/kg/injection, schedule: Q04DX003 (ip), vehicle: saline 91 % of control | dose: 400.0 mg/kg/injection, schedule: Q01DX009 (ip), vehicle: saline 110 % of control | dose: 400.0 mg/kg/injection, schedule: Q04DX003 (ip), vehicle: saline 98 % of control

CC1CCCCN1P(c1ccccc1)N1CCCCC1C (stereo unspecified)
inactive: dose: 100.0 mg/kg/injection, schedule: Q04DX002 (sc), vehicle: olive oil, sesame oil, peanut oil 97 % of control | dose: 200.0 mg/kg/injection, schedule: Q04DX002 (sc), vehicle: olive oil, sesame oil, peanut oil 113 % of control | dose: 400.0 mg/kg/injection, schedule: Q04DX002 (sc), vehicle: olive oil, sesame oil, peanut oil 107 % of control

c1ccc(C[n+]2ccc3ccccc3c2)cc1
inactive: dose: 6.25 mg/kg/injection, schedule: Q01DX009 (ip), vehicle: saline with Tween-80 95 % of control | dose: 6.25 mg/kg/injection, schedule: Q04DX003 (ip), vehicle: saline with Tween-80 107 % of control | dose: 10.0 mg/kg/injection, schedule: Q04DX003 (ip), vehicle: saline 105 % of control | [10] 103 % of control | dose: 12.5 mg/kg/injection, schedule: Q01DX009 (ip), vehicle: saline 112 % of control | [11] 98 % of control | dose: 20.0 mg/kg/injection, schedule: Q04DX003 (ip), vehicle: saline 92 % of control | [12] 111 % of control | dose: 25.0 mg/kg/injection, schedule: Q01DX009 (ip), vehicle: saline 107 % of control | [13] 91 % of control | dose: 40.0 mg/kg/injection, schedule: Q04DX003 (ip), vehicle: saline 94 % of control | dose: 50.0 mg/kg/injection, schedule: Q01DX009 (ip), vehicle: saline 104 % of control | dose: 50.0 mg/kg/injection, schedule: Q04DX003 (ip), vehicle: saline 95 % of control

NC1=C(c2ccccc2)C(=O)c2ccccc21
inactive: [2] 107 % of control | [3] 106 % of control | [5] 86 % of control | [6] 95 % of control | [8] 96 % of control | [9] 90 % of control
